The record followed here is patent publication US20020049157A1, “Use of proteasome inhibitors for treating cancer, inflammation, autoimmune disease, graft rejection and septic shock” (priority 1998, published 2002).

The subject of test [1] is Peripheral blood T cells. Nature of the test: S phase entry of mitogen-stimulated peripheral blood T cells (flow cytometry). The format is cell-based, human. The settings on record: PHA; for cell death: evaluated at 40 h, data not shown. The method, then:
C and D. LAC blocks the S phase entry of the mitogen-stimulated peripheral blood T cells Peripheral blood T cells were stimulated with PHA (2 μ/ml) in the absence or presence of LAC (10 μM, added at 0 h, 16 h, 24 h, or 40 h, as indicated in the bottom of the panels). For the flow cytometry analysis of the cell cycle progress, the cells were harvested at 0 h, 1 6 h, 40 h and 64 h as indicated on the top of the panels (FIG. 6C). For ^3H-thymidine uptake, the triplicated cell samples were pulsed at 48 h and harvested at 64 h (FIG. 6D).
T cells from PBMC were at Go when isolated. After 16 h stimulation with PHA, they remained before the S phase (FIG. 6C). At 40 h, about 20% of the cells were in the S and G2/M phases. The peak of ^3H-thymidine uptake according to a 16 h pulse was between 48 h and 64 h (data not shown), although at 64 h, the cells in the S and G2/M phases were still about 20% (FIG. 6C). The lack of an increase in percentage of cells in the S and G2/M phases at 64 h compared with that at 40 h was likely due to the exit of the cells from the S and G2/M phase. It is to be noted that the cycling T cells in this system never reaches 100%, because about 15% of the cells were non T cells, and an additional 20% were non responsive T cells. Taken the cell proliferation and cell cycle analysis together, the G1/S boundary of the cycling T cells should be between about 35 h and 48 h after the PHA stimulation. The boundary was broad because the synchronization was not ideal.
In this model, the role of the proteasome in the S phase entry was examined. […] We have noticed that when the cell viability was evaluated at 40 h, there was an increase of cell death comparing the 16 h addition of LAC with the 0 h addition (about 25% vs about 17%, data not shown). The increased cell death was also reflected in the cells with <2N DNA in the 40 h histogram. However, such a viability was still reasonable and would not invalidate our conclusion. […] The discrepancy could be explained by the fact that the 20% cells were already in the S and G2/M phases at 40 h when LAC was added. LAC prevented additional cells from entering into the S phase, therefore the lack ^3H-thymidine uptake.
Flow cytometry was employed for cell cycle analysis for T cells and Jurkat cells as described before (Shan et al., 1994, supra) using propidium iodide staining.
(In general: A flow cytometer gives signals particle by particle.)

Test [2] relates to CDK4. Nature of the test: Immunoprecipitation kinase assay, CDK4. The conditions noted are these: PHA-activated T cells; LAC 10 μM added once at 0 h; examined at 16 h and 40 h. It counts as cell-based, human. How it is done:
Tonsillar T cells were activated with PHA (2 μg/ml) for a period as indicated in each graph. LAC (10 μM) was added once at 0 h. The cells were harvested at 16 h, 24 h, or 40 h as indicated. An equal amount of lysate protein ([…]) was precipitated with rabbit anti-CDK4, anti-CDK2 or anti-Cyclin E antisera (2.5 μg Ab/sample). The immune complexes were assayed for their kinase activities using histone H1 as a substrate. (A) CDK4 kinase activity. (B) CDK2 kinase activity. (C) Cyclin E-associated CDK activity. The membrane in (C) was subsequently hybridized with anti-Cyclin E (1 μg/ml) followed by ^125I-protein A for the evaluation of the protein level of Cyclin E.
This was in agreement with the critical role of CDK4 in the early […].
Lymphocytes were lysed by a lysis buffer as used in the immunoblotting (Chen et al., 1996, supra), and cleared lysates were quantitated for their protein content. For immunoprecipitation, 50 μl of rabbit antisera against CDK2, CDK4 or Cyclin E were added to the lysates equivalent to 20 or 40 μg protein depending on the experiment. After 2 h incubation at 4° C., the immune complexes were recovered by protein A-conjugated Sepharose (Pharmacia Biotech, Montreal, Quebec, Canada). […] The proteins were then transferred to PVDF membranes and the signals were detected by autoradiography.

The test system of test [3] is p21^Cip1. Nature of the test: Immunoblotting of p21Cip1 level in T cells. The format is cell-based, human. The conditions noted are these: PHA; LAC 10 μM added once at the beginning. How it is done: Tonsillar T cells were stimulated with PHA (2 μg/ml) for 16 h, 40 or 64 h in the absence or presence of LAC (10 μM). For the 16 h and 40 h culture, LAC was added once at 0 h. For the 64 h culture, LAC was added once at 40 h. The cell lysates were resolved in 10% SDS-PAGE, and blotted onto PVDF membranes. The membranes were hybridized with rabbit anti-p27^Kip1 antisera (FIG. 9A) or with anti-p21^Cip1 antisera (FIG. 9B) followed by ^125-protein A. The experiments were performed three times, and similar results were obtained. Representative data is shown.
In addition to the cyclin levels, the CDK activities are also controlled by several low molecular weight inhibitors. We have examined in this study the effect of the proteasome on the CDK inhibitors p27^Kip1 (Hall et al., 1995, supra) and p21^Cip1 (el-Deiry et al., 1993, Cell 75:817). […] This is in agreement with previous reports (Hengst et al., 1996, Science 271:1861; Nourse et al., 1994, Nature 372:570). […] The blockage was less obvious when assayed at 40 h, probably because the gradual loss of LAC activity during the 40 h culture. […]
Immunoblotting was employed to evaluate the levels of Cyclin E, cyclin A, p21^Cip1 and p27^Kip1. […] The cleared lysates were quantitated for protein concentrations. […] The signals on the membrane were detected by [^125I]-protein A followed by autoradiography.
For orientation: Immunoblotting shows a protein as a band on a membrane.

Test [4] deals with Jurkat cells. Put plainly: Proliferation of Jurkat cells. The format is cell-based. The conditions noted are these: data not shown.

For the molecule `CC(=O)N[C@@H](CSC(=O)[C@]1([C@@H](O)C(C)C)NC(=O)[C@H](C)[C@@H]1O)C(=O)O` [LAC, lactacystin], in test [1] (LAC 10 μM added once at 16 h, examined at 40 h), the S phase entry result is recorded as “totally block the S phase entry”. In addition, the cell death result in test [1] (LAC added at 0 h) is reported as “about 17%”; in test [1] (LAC added at 16 h), “about 25%”. Also, the “percentage of the population in the S and G2/M phase” value in test [1] (LAC added at 40 h or not, at 64 h) is listed as “no difference”. In test [2], the CDK4 kinase activity result was “did not affect the CDK4 activity”. The “upregulation of p21Cip1 in the G1 phase” value in test [3] is recorded as “strongly suppressed the upregulation”. The “proliferation of Jurkat cells” value in test [4] is on record as “potently inhibited”.
